What was measured:
Type in all cases: in vivo
[1] = tested on: barnyardgrass; test: Test Example 1: herbicidal effects in preemergence treatment under submerged conditions; conditions: dose 2.52 g/a
In short: (§1)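 Weed seeds and 2.5-leaf rice seedlings shared each flooded cup of alluvial soil. Dosing, expressed as g per are, was by pouring water-diluted emulsifiable concentrate onto the surface on sowing day. Mortality was graded 0 to 5 after three weeks' growth.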

[2] = tested on: bulrush; test: as above; conditions: dose 2.52 g/a
In short: as §1

[3] = tested on: ducksalad; test: as above; conditions: dose 2.52 g/a
In short: as §1

[4] = tested on: transplanted rice; test: Test Example 1: preemergence treatment under submerged conditions, effect on crop; conditions: dose 2.52 g/a
In short: as §1

[5] = tested on: barnyardgrass; test: Test Example 2: herbicidal effects during the vegetation period under submerged conditions; conditions: treatment during the vegetation period under submerged conditions; dose 2.52 g/a
In short: (§2)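 Barnyardgrass, bulrush and ducksalad were co-sown in alluvial soil flooded to 4 cm and grown in a greenhouse at 25 to 30° C. At the 1- or 2-leaf stage, water-diluted emulsifiable concentrates went onto the water surface at set doses (g/a). Herbicidal effect was scored three weeks later on a graded scale.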

[6] = tested on: bulrush; test: as above; conditions: treatment during the vegetation period under submerged conditions; dose 2.52 g/a
In short: as §2

[7] = tested on: ducksalad; test: as above; conditions: treatment during the vegetation period under submerged conditions; dose 2.52 g/a
In short: as §2

[8] = tested on: Italian ryegrass; test: Test Example 3: herbicidal effects in soil treatment; conditions: dose 3.2 g/a
In short: (§3)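 Seeds were sown in sterilized diluvial soil and covered with about 1.5 cm of soil. Compounds, formulated as emulsifiable concentrates and diluted with water, were sprayed evenly over the soil surface at set doses in g/a. Herbicidal effect was scored on a rating scale three weeks later.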

[9] = tested on: barnyardgrass; test: as above; conditions: dose 3.2 g/a
In short: as §3

[10] = tested on: beadstraw; test: as above; conditions: dose 3.2 g/a
In short: as §3

[11] = tested on: common chickweed; test: as above; conditions: dose 3.2 g/a
In short: as §3

[12] = tested on: common lambsquater; test: as above; conditions: dose 3.2 g/a
In short: as §3

[13] = tested on: common ragweed; test: as above; conditions: dose 3.2 g/a
In short: as §3

[14] = tested on: giant foxtail; test: as above; conditions: dose 3.2 g/a
In short: as §3

[15] = tested on: large crabgrass; test: as above; conditions: dose 3.2 g/a
In short: as §3

[16] = tested on: posumbu knotweed; test: as above; conditions: dose 3.2 g/a
In short: as §3

[17] = tested on: redroot pigweed; test: as above; conditions: dose 3.2 g/a
In short: as §3

[18] = tested on: velvetleaf; test: as above; conditions: dose 3.2 g/a
In short: as §3

[19] = tested on: water foxtail; test: as above; conditions: dose 3.2 g/a
In short: as §3

[20] = tested on: wild oat; test: as above; conditions: dose 3.2 g/a
In short: as §3

[21] = tested on: Italian ryegrass; test: Test Example 4: herbicidal effect in foliage treatment; conditions: dose 3.2 g/a, three weeks after the application
In short: (§4)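 14-day greenhouse-grown plants (25–30° C) sprayed on foliage with diluted EC; dose as g/a; effect graded after 3 weeks.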

[22] = tested on: barnyardgrass; test: as above; conditions: dose 3.2 g/a, three weeks after the application
In short: as §4

[23] = tested on: beadstraw; test: as above; conditions: dose 3.2 g/a, three weeks after the application
In short: as §4

[24] = tested on: common chickweed; test: as above; conditions: dose 3.2 g/a, three weeks after the application
In short: as §4

[25] = tested on: common lambsquater; test: as above; conditions: dose 3.2 g/a, three weeks after the application
In short: as §4

[26] = tested on: common ragweed; test: as above; conditions: dose 3.2 g/a, three weeks after the application
In short: as §4

[27] = tested on: giant foxtail; test: as above; conditions: dose 3.2 g/a, three weeks after the application
In short: as §4

[28] = tested on: large crabgrass; test: as above; conditions: dose 3.2 g/a, three weeks after the application
In short: as §4

[29] = tested on: posumbu knotweed; test: as above; conditions: dose 3.2 g/a, three weeks after the application
In short: as §4

[30] = tested on: redroot pigweed; test: as above; conditions: dose 3.2 g/a, three weeks after the application
In short: as §4

[31] = tested on: velvetleaf; test: as above; conditions: dose 3.2 g/a, three weeks after the application
In short: as §4

[32] = tested on: water foxtail; test: as above; conditions: dose 3.2 g/a, three weeks after the application
In short: as §4

[33] = tested on: wild oat; test: as above; conditions: dose 3.2 g/a, three weeks after the application
In short: as §4

[34] = tested on: barnyardgrass; test: Comparative Example 1: herbicidal effects in preemergence treatment on barnyardgrass under submerged conditions; conditions: applied to water surface on the day of seeding, three weeks after application
Text: Comparative Example 1 Test on the Herbicidal Effects in Preemergence Treatment on Barnyardgrass Under Submerged Conditions Alluvial soil was put in 1/30000-are styrol cups and admixed with water so that it was submerged at a depth of 4 cm. In each cup, seeds of barnyardgrass were sown, and on the same day as the seeding, emulsifiable concentrates containing compounds of the present invention formulated in accordance with Formulation Example 2 were applied to the water surfaces at predetermined doses after diluted with water. The cups were placed in a greenhouse at 25 to 30° C. to grow the plants. Three weeks after the application, the herbicidal effects against barnyardgrass were determined on the following evaluation scale. The symbol A in the table means barnyardgrass.

[35] = tested on: barnyardgrass; test: Comparative Example 2: herbicidal effects on barnyardgrass during the vegetation period under submerged conditions; conditions: applied to water surface at the 2- or 2.5-leaf stage, three weeks after application
Experimental: Comparative Example 2 Test on the Herbicidal Effects on Barnyardgrass During the Vegetation Period Under Submerged Conditions Alluvial soil was put in 1/30000-are styrol cups and admixed with water so that it was submerged at a depth of 4 cm. In each cup, seeds of barnyardgrass were sown, and the cups were placed in a greenhouse at 25 to 30° C. to grow the plants. When the barnyardgrass reached the 2- or 2.5-leaf stage, emulsifiable concentrates containing compounds of the present invention and the comparative compounds formulated in accordance with Formulation Example 2 were applied to the water surfaces at predetermined doses after diluted with water. Three weeks after the application, the herbicidal effects were determined on the same evaluation scale as in Test Example 1. The symbol A in the table is the same as defined above.

## CCOC(=O)N(c1ccccc1CN1COCN(CC)C1=O)S(=O)(=O)C(F)(F)F [IV-6]
[1]
  A: barnyardgrass, herbicidal effect (evaluation scale 0-5): 5 (mortality of 90% or above (nearly complete death))
[2]
  B: bulrush, herbicidal effect (evaluation scale 0-5): 5 (mortality of 90% or above (nearly complete death))
[3]
  C: ducksalad, herbicidal effect (evaluation scale 0-5): 5 (mortality of 90% or above (nearly complete death))
[4]
  a: transplanted rice, effect on crop (evaluation scale 0-5): 0 (mortality of less than 5% (almost ineffective))
[5]
  A: barnyardgrass, herbicidal effect (evaluation scale 0-5): 5 (mortality of 90% or above (nearly complete death))
[6]
  B: bulrush, herbicidal effect (evaluation scale 0-5): 5 (mortality of 90% or above (nearly complete death))
[7]
  C: ducksalad, herbicidal effect (evaluation scale 0-5): 5 (mortality of 90% or above (nearly complete death))
[8]
  herbicidal effect, H: Italian ryegrass: 0 (mortality of less than 5% (almost ineffective))
[9]
  herbicidal effect, A: barnyardgrass: 5 (mortality of 90% or above (nearly complete death))
[10]
  herbicidal effect, O: beadstraw: 4 (mortality of at least 70% and less than 90%)
[11]
  herbicidal effect, N: common chickweed: 4 (mortality of at least 70% and less than 90%)
[12]
  herbicidal effect, L: common lambsquater: 0 (mortality of less than 5% (almost ineffective))
[13]
  herbicidal effect, J: common ragweed: 0 (mortality of less than 5% (almost ineffective))
[14]
  herbicidal effect, E: giant foxtail: 5 (mortality of 90% or above (nearly complete death))
[15]
  herbicidal effect, D: large crabgrass: 5 (mortality of 90% or above (nearly complete death))
[16]
  herbicidal effect, M: posumbu knotweed: 0 (mortality of less than 5% (almost ineffective))
[17]
  herbicidal effect, K: redroot pigweed: 1 (mortality of at least 5% and less than 20%)
[18]
  herbicidal effect, I: velvetleaf: 5 (mortality of 90% or above (nearly complete death))
[19]
  herbicidal effect, G: water foxtail: 5 (mortality of 90% or above (nearly complete death))
[20]
  herbicidal effect, F: wild oat: 0 (mortality of less than 5% (almost ineffective))
[21]
  H: Italian ryegrass, herbicidal effect: 2 (mortality of at least 20% and less than 40%)
[22]
  A: barnyardgrass, herbicidal effect: 4 (mortality of at least 70% and less than 90%)
[23]
  O: beadstraw, herbicidal effect: 4 (mortality of at least 70% and less than 90%)
[24]
  N: common chickweed, herbicidal effect: 4 (mortality of at least 70% and less than 90%)
[25]
  L: common lambsquater, herbicidal effect: 3 (mortality of at least 40% and less than 70%)
[26]
  J: common ragweed, herbicidal effect: 3 (mortality of at least 40% and less than 70%)
[27]
  E: giant foxtail, herbicidal effect: 4 (mortality of at least 70% and less than 90%)
[28]
  D: large crabgrass, herbicidal effect: 4 (mortality of at least 70% and less than 90%)
[29]
  M: posumbu knotweed, herbicidal effect: 0 (mortality of less than 5% (almost ineffective))
[30]
  K: redroot pigweed, herbicidal effect: 0 (mortality of less than 5% (almost ineffective))
[31]
  I: velvetleaf, herbicidal effect: 5 (mortality of 90% or above (nearly complete death))
[32]
  G: water foxtail, herbicidal effect: 5 (mortality of 90% or above (nearly complete death))
[33]
  F: wild oat, herbicidal effect: 0 (mortality of less than 5% (almost ineffective))

## CC(C)COC(O)N(c1ccccc1CN1CCCOC1=O)S(=O)(=O)C(F)(F)F (stereo not drawn) [a, reference compound]
[34]; dose 0.16 g/a
  herbicidal effect, A (barnyardgrass): 0 (mortality of less than 5% (almost ineffective))
[34]; dose 0.64 g/a
  herbicidal effect, A (barnyardgrass): 5 (mortality of 90% or above (nearly complete death))
[34]; dose 2.52 g/a
  herbicidal effect, A (barnyardgrass): 5 (mortality of 90% or above (nearly complete death))
[35]; dose 0.16 g/a
  herbicidal effect, A (barnyardgrass): 0 (mortality of less than 5% (almost ineffective))
[35]; dose 0.64 g/a
  herbicidal effect, A (barnyardgrass): 0 (mortality of less than 5% (almost ineffective))
[35]; dose 2.52 g/a
  herbicidal effect, A (barnyardgrass): 5 (mortality of 90% or above (nearly complete death))

— patent publication US20120029187A1, “HALOALKYLSULFONANILIDE DERIVATIVE” (Nissan Chemical Industries, Ltd., priority 2009, published 2012)
